Laboratory results: ChEMBL document CHEMBL1132733, “7-Methoxybenzofuran-4-carboxamides as PDE 4 inhibitors: a potential treatment for asthma” (Bioorg Med Chem Lett, 2000)

Columns and labels:
[1] = molecular target: T1, Phosphodiesterase 4 (Rattus norvegicus, UniProt P14270+P14646+P14644+P54748); experiment: Inhibition of rolipram binding in rat brain tissue; type: tissue-based
[2] = molecular target: Phosphodiesterase 4 (Homo sapiens, UniProt P27815+Q08499+Q07343+Q08493); experiment: Inhibition of Phosphodiesterase 4 from human U937 cells; type: cell-based; conditions: u-937
[3] = molecular target: Phosphodiesterase 3 (Homo sapiens) (UniProt Q14432+Q13370); experiment: Inhibition of Phosphodiesterase 3 from human platelets; design: concentration or dose not given beside the values; conditions: concentration not given here
[4] = Relative activity against human Phosphodiesterase type 4 (PDE4) and rat rolipram binding protein (RBA); design: reference not given here
[5] = molecular target: T1, Phosphodiesterase 4; experiment: Inhibition of rolipram binding to rat brain tissue; type: tissue-based
[6] = molecular target: T1, Phosphodiesterase 4; experiment: Inhibition of rolipram binding to rat brain tissue at 20 uM; type: tissue-based

Structure (SMILES) | IC50 [1] [nM] | IC50 [2] [nM] | inhibition [3] [%] | Ratio [4] | IC50 [5] [nM] | IC50 [6] [nM]
COc1ccc(C(=O)Nc2c(Cl)cncc2Cl)c2cc(C(C)O)oc12 (stereo not given) |  | 8.6 | 23 |  |  | 
COc1ccc(C(=O)Nc2c(Cl)cncc2Cl)c2cc(C#N)oc12 |  |  | 31 |  |  | 
COc1ccc(C(=O)Nc2c(Cl)cncc2Cl)c2c(C)c(C(C)=O)oc12 | 160 | 320 |  |  |  | 
COc1ccc(C(=O)Nc2c(Cl)cc(C#N)cc2Cl)c2cc(C(C)=O)oc12 | 228 | 85.1 |  | 0.37 |  | 
COc1ccc(C(=O)Nc2c(Cl)cncc2Cl)c2cc(C(=O)c3ccncc3)oc12 |  | 2.41 | 7 | 0.3 |  | 8.1
CCc1cc2c(C(=O)Nc3c(Cl)cncc3Cl)ccc(OC)c2o1 |  | 27 | 46 |  |  | 
COc1ccc(C(=O)Nc2c(Cl)cncc2Cl)c2cc(CC(C)(C)C)oc12 |  | 17 | 34 |  |  | 

Further lines, results first:

IC50 [1] [nM] | IC50 [2] [nM] | inhibition [3] [%] | Ratio [4] | IC50 [5] [nM] | IC50 [6] [nM] | Structure (SMILES)
150 | 330 |  |  |  |  | COc1ccc(C(=O)N(C)c2c(Cl)cncc2Cl)c2cc(C(C)=O)oc12
32 | 6.3 |  | 0.197 |  |  | COc1ccc(C(=O)Nc2ccncc2Cl)c2cc(C(C)=O)oc12
 | 54 |  | 0.21 | 248 |  | COc1ccc(C(=O)Nc2ccccc2Cl)c2cc(C(C)=O)oc12
199 | 875 |  | 4.4 |  |  | COc1ccc(C(=O)Nc2cccnc2Cl)c2cc(C(C)=O)oc12
1850 | 452 |  | 0.24 |  |  | COc1ccc(C(=O)Nc2ncccc2C)c2cc(C(C)=O)oc12
250 | 120 |  | 0.48 |  |  | COc1ccc(C(=O)Nc2ccncc2)c2cc(C(C)=O)oc12
 | 1.6 | 32 |  |  |  | COc1ccc(C(=O)Nc2c(Cl)cncc2Cl)c2cc(C(C)=O)oc12
59.6 | 164 |  | 2.75 |  |  | COc1ccc(C(=O)Nc2ncncc2Cl)c2cc(C(C)=O)oc12
 | 770 | 38 |  |  |  | COc1ccc(C(=O)Nc2c(Cl)cncc2Cl)c2cc(C(=O)O)oc12
